Source: PubChem BioAssay (NCI)
“And” between values parts separate entries of the source, which are not always exact repeats. Equal values may be shown once.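 48-hour exposure; five concentrations; linearly interpolated endpoints. GI50 = concentration required for 50% inhibition of growth. TGI: total growth inhibition.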

Assays:
Test in all cases: NCI tumour cell line growth inhibition, 48 h
CAKI-1 renal = tested on: CAKI-1 renal
SN12C renal = tested on: SN12C renal
KM12 colon = tested on: KM12 colon
U251 CNS = tested on: U251 CNS
RXF 393 renal = tested on: RXF 393 renal
NCI/ADR-RES ovarian = tested on: NCI/ADR-RES ovarian
MDA-MB-231 breast = tested on: MDA-MB-231 breast
IGROV1 ovarian = tested on: IGROV1 ovarian
NCI-H522 lung = tested on: NCI-H522 lung
SR leukemia = tested on: SR leukemia

Row | SMILES | GI50 (CAKI-1 renal) [µM] | TGI (CAKI-1 renal) [µM] | GI50 (SN12C renal) | TGI (SN12C renal) [µM] | GI50 (KM12 colon) | TGI (KM12 colon) [µM] | GI50 (U251 CNS) | TGI (U251 CNS) [µM] | GI50 (RXF 393 renal) [µM] | TGI (RXF 393 renal) [µM] | GI50 (NCI/ADR-RES ovarian) | TGI (NCI/ADR-RES ovarian) [µM] | GI50 (MDA-MB-231 breast) | TGI (MDA-MB-231 breast) [µM] | GI50 (IGROV1 ovarian) | TGI (IGROV1 ovarian) [µM] | TGI (NCI-H522 lung) [µM] | TGI (SR leukemia) [µM] | GI50 (NCI-H522 lung) [µM] | GI50 (SR leukemia)
1 | O=C(Nc1ccc(F)cc1)c1cc(S(=O)(=O)Nc2nc3ccccc3o2)c(SCc2ccccc2)cc1Cl | 18.4 | 37.7 | 16.4 µM | 31.6 | 17.5 µM | 33.9 | 17.3 µM | 31.7 | 12.8 | 30.2 | 22.8 µM | 54.4 | 14.5 µM | 29.5 | 0.611 µM | 21.3 |  |  |  | 
2 | Cc1cccc(C)c1NC(=O)C(=O)C(C(=O)c1ccccc1-c1ccccc1)C1OC(=O)c2ccccc21 (centres undefined) |  |  |  |  |  | 48.9 |  | 30.7 |  | 28.4 |  |  |  |  |  | 64.1 | 24.9 |  |  | 
3 | S=c1[nH]c(=S)c2nnn(-c3ccccc3)c2[nH]1 |  | > 100 |  | > 100 |  | > 100 |  | > 100 |  | > 100 |  |  |  |  |  | > 100 | > 100 | > 100 |  | 
4 | N#CC(C(=O)C(=O)Nc1ccc(Cl)cc1)c1ccccc1 (centres undefined) |  | > 100 |  | > 100 |  | > 100 |  | > 100 |  | > 100 |  |  |  |  |  | > 100 |  | > 100 |  | 
5 | CN(CCO)c1ccc(N2Cc3ccccc3OC3=C2C(=O)c2c(O)ccc(O)c2C3=O)cn1 |  |  | 0.165 µM | 0.355 | 0.387 µM | 1.63 | 0.284 µM | 0.82 | 0.0954 | 0.27 | 0.31 µM | 1.34 | 0.221 µM | 0.679 | 0.203 µM | 0.636 | 0.116 |  | 0.0323 | 
6 | COc1c[c]([Hg][O]C(C)=O)c(OC)c(NC(=O)CC(C)=O)[c]1[Hg][O]C(C)=O | 2.26 | 4.26 | 13.7 µM | 27.8 | > 43.2 µM | > 62.1 | 12.6 µM | 27.8 | 2.86 | 7.3 |  |  |  |  | 11 µM | 23.9 | 0.154 | > 100 |  | 2.59 µM
7 | O=C1OCC2C1C1c3ccccc3C(O)c3ccccc3C21 (centres undefined) |  | > 100 |  | > 100 |  | > 100 |  | > 100 |  | > 100 |  |  |  |  |  | > 100 |  | > 100 |  | 
8 | CC(=O)[O][Ga]([Br])[O]C(C)=O | > 100 | > 100 | > 100 µM | > 100 | > 100 µM | > 100 | > 100 µM | > 100 | > 100 | > 100 |  |  |  |  | > 100 µM | > 100 | > 100 | > 100 | > 100 | > 100 µM
9 | COC(=O)[C@H]1C=C[C@@H](C)n2c(=O)c3cc4ccccc4cc3c(=O)n21 |  | > 100 |  | > 100 |  | > 100 |  | > 100 |  | > 100 |  |  |  |  |  | > 100 | > 100 | > 100 |  | 
10 | O[C@H](c1cc(C(F)(F)F)nc2c(C(F)(F)F)cccc12)[C@@H]1CCCCN1 | 1.96 | 7.29 | 4.19 µM | 14 | 1.63 µM | 3.34 | 3.05 µM | 8.38 | 3.82 | 13.5 | 3.09 µM | 9.49 | 1.78 µM | 4.08 | 1.17 µM | 4.14 |  | 9.5 |  | 2.32 µM
11 | CC(C)N(CCn1c2c3ccccc3ccc2c2oc(=O)c3ccccc3c21)C(C)C |  | > 100 |  | > 100 |  | > 100 |  | > 100 |  | > 100 |  |  |  |  |  | > 100 | > 100 | > 100 |  | 
12 | Cc1nc([N+](=O)[O-])cn1CC(=N)N |  |  |  | > 100 |  |  |  | > 100 |  | > 100 |  |  |  |  |  | > 100 |  | > 100 |  | 
13 | Cc1ccc(NC(=O)CSc2nnc(-c3ccc(N=Cc4ccc(Cl)cc4)cc3)o2)cc1 |  |  |  | > 100 |  | > 100 |  | > 100 |  | > 100 |  |  |  |  |  |  | > 100 | > 100 |  | 
14 | CCCN1CN(C(C(=O)N[C@@H]2C(=O)N3C2SC(C)(C)C3C(=O)O)c2ccc(O)cc2)CSC1=S (some centres undefined) |  | > 100 |  | > 100 |  | > 100 |  | > 100 |  |  |  |  |  |  |  | > 100 | 83.6 |  |  | 
15 | Cc1cc(S(=O)(=O)O)c(NC(=O)C(=O)Cc2cc(=O)oc3cc(O)ccc23)cc1Cl |  | > 100 |  | > 100 |  | > 100 |  | > 100 |  | > 100 |  |  |  |  |  | > 100 | > 100 | > 100 |  | 
16 | O=C1c2ccccc2-c2c1c1ccccc1c(=O)n2CCCCl | 3.63 | 19.1 | 12.1 µM | 51.8 | 34 µM | > 100 | 11 µM | 31.5 |  |  | 16.9 µM | 73.3 | 11.4 µM | 39.8 |  |  | > 100 |  | 37.4 | 
17 | C/C(CC(=O)Nc1cccc(Cl)c1C)=N\NC(=O)c1ccncc1 |  |  |  |  |  | > 100 |  | > 100 |  | 87.9 |  |  |  |  |  | > 100 | 55 |  |  | 
18 | Cc1ccc(C)c(N=C2NC(=O)C(CC(=O)Nc3ccc(Cl)cc3Cl)S2)c1 (centres undefined) |  | > 100 |  | > 100 |  | > 100 |  | > 100 |  | > 100 |  |  |  |  |  | > 100 | 56.5 |  |  | 
19 | CC(C)C(=O)NS(=O)(=O)c1ccccc1 |  | > 100 |  | > 100 |  | > 100 |  | > 100 |  | > 100 |  |  |  |  |  | > 100 | > 100 | > 100 |  | 
20 | COC(=O)[C@@H](C)C[C@H](Cc1ccccc1)NC(=O)c1csc([C@@H](C[C@H](C(C)C)N(C)C(=O)[C@@H](NC(=O)[C@H]2CCCCN2C)C2CCCCC2)OC(C)=O)n1 |  |  | 0.0041 µM and 0.0025 µM | 8.9 | 0.000296 µM and 0.0025 µM | > 25 | 0.000533 µM and 0.0025 µM | > 25 | 0.00103 |  | 0.0215 µM and 0.0481 µM | > 25 | 0.00115 µM and 0.0025 µM |  | 0.000631 µM and 0.0025 µM | > 25 |  | 2.9 |  | 0.000274 µM and 0.0025 µM
21 | CC(=O)O[C@H]1CCC2[C@@H]3CCC4Nc5[nH]ncc5C[C@]4(C)C3CC[C@@]21C (some centres undefined) |  | > 100 |  | > 100 |  | > 100 |  | > 100 |  | > 100 |  |  |  |  |  | > 100 | 83.2 |  |  | 
